Measurements reported in patent US4748153A, “Compounds having somatostatin-like activity useful as local anti-inflammatory agents” (Merck & Co., Inc., priority 1987, dated 1988).
Residues, ends and D or L forms follow the SMILES beside them.

Tests used:
[1] = test system: inhibition of growth hormone, insulin and glucogen secretion; experiment: Potency relative to somatostatin (SRIF); details: SRIF assigned a value of 1, based upon inhibition of growth hormone
Protocol: (§1) Following the same procedure as described above for Assay 1, additional compounds were tested for local; i.e., topical, anti-inflammatory activity. […] In Table IV, the potency of each compound tested relative to that of somatostatin is also shown, the somatostatin (SRIF) potency being assigned a value of 1 and based upon its inhibition of growth hormone, insulin and glucogen secretion.

[2] = test system: cellular proliferation (granuloma); experiment: Pellet granuloma assay, compound applied locally to subcutaneously implanted pellets (Assays 1, 2, 4); assay type: in vivo, rats (Charles River-CD); details: for Body Wt. Change: Assay 2; for Granulosimer Net weight: Assay 1, six animals per group, 7 days, ± 2 S.E. of mean
Protocol: The assay method employed to test the Formula I, II, III, IV and V compounds as local anti-inflammatory agents is a modification of the method described by S. L. Steelman, et al. [Steroids, 1, 163 (1963)] as follows:
(§2) Male rats (Charles River-CD) of about 150-160 grams in weight were subcutaneously implanted in the abdominal area with two pellets each. Five animals were used per group. The pellets used were preweighed and all used in a given assay were ±1 mg from one another. The compounds were dissolved in absolute ethanol and the indicated dose applied to each pellet in 0.2 ml. The alcohol was removed in vacuo overnight. Just prior to implantation, each pellet was moistened with 0.2 ml of 0.9% saline containing 1 mg each of penicillin and streptomycin. After seven days, the pellets were dissected out together with adhering granulomatous tissue. After drying in a vacuum oven overnight at 60°-65° C., the pellets were weighed. The difference in weight between the original pellet weight and the implanted pellet weight was used as a measure of cellular proliferation (granuloma). The lower the net weight, the more anti-inflammatory activity.
Following the procedure of the Assay Method described above, somatostatin (SRIF) was tested for its anti-inflammatory activity. The structure of somatostatin is: [drawing 5]
Six animals per group were used in this test and the results obtained are shown in Table I below wherein hydrocortisone was used as a positive control:
The results obtained following the Assay Method described above using Compound 8 of Formula I are shown below in Table II wherein hydrocortisone was used as a positive control.
as §1

[3] = test system: cellular proliferation (granuloma); experiment: Pellet granuloma assay, compounds administered subcutaneously as saline injections (Assay 3); assay type: in vivo, rats (Charles River-CD)
Protocol: as §2
Following the procedure described above for Assau 1, additional tests were conducted except that the compounds were administered subcutaneously as saline injections. The tests were carried out on six animals per group and the results obtained are shown below in Table III.

[4] = administered subcutaneously, Table III

CC(C)[C@@H]1NC(=O)[C@H](CCCCN)NC(=O)[C@H](Cc2c[nH]c3ccccc23)NC(=O)[C@H](Cc2ccc(O)cc2)NC(=O)[C@H](C)N(C)C(=O)[C@H](Cc2ccccc2)NC1=O [10/I, Cyclo-(N-Me-Ala-Tyr-L-Trp-Lys-Val-Phe)]
Potency Relative to Somatostatin (SRIF) [1]: 50

CC(C)[C@@H]1NC(=O)[C@H](CCCCN)NC(=O)[C@@H](Cc2c[nH]c3ccccc23)NC(=O)[C@H](Cc2ccc(O)cc2)NC(=O)[C@H](C)N(C)C(=O)[C@H](Cc2ccccc2)NC1=O [Compound 8 of Formula I, Cyclo-(N-Me-Ala-Tyr-D-Trp-Lys-Val-Phe)]
Body Wt. Change ([2]; 10 mcg/pellet): +43 gm
Body Wt. Change ([2]; 100 mcg/pellet): +40 gm
anti-inflammatory activity (in words) ([2]; doses of 100-200 micrograms per pellet, Table II): significant activity
effect on adrenal weight (in words) [3, 4]: slight decrease in the adrenal weight
anti-inflammatory activity (in words) ([3]; administered systemically, i.e., subcutaneously): no anti-inflammatory activity
Avg. Adrenal wt. ([3]; daily dose 200 mcg subcutaneously, ± S.E. of mean): 36 ± 2 mg
Potency Relative to Somatostatin (SRIF) [1]: 50-100

C[C@]12CCC(=O)C=C1CC[C@@H]1[C@@H]2[C@@H](O)C[C@@]2(C)[C@H]1CC[C@]2(O)C(=O)CO [Hydrocortisone, hydrocortisone]
Body Wt. Change ([2]; 200 mcg/pellet): +44 gm
Granulosimer Net weight ([2]; 300 mcg/pellet): 24 ± 2 mg
Body Wt. Change ([2]; 1000 mcg/pellet): +41 gm
activity (in words) [3, 4]: typical activity

C[C@H](N)C(=O)NCC(=O)N[C@H]1CSSC[C@@H](C(=O)O)NC(=O)[C@H](CO)NC(=O)[C@H]([C@@H](C)O)NC(=O)[C@H](Cc2ccccc2)NC(=O)[C@H]([C@@H](C)O)NC(=O)[C@H](CCCCN)NC(=O)[C@H](Cc2c[nH]c3ccccc23)NC(=O)[C@H](Cc2ccccc2)NC(=O)[C@H](Cc2ccccc2)NC(=O)[C@H](CC(N)=O)NC(=O)[C@H](CCCCN)NC1=O [SRIF, somatostatin]
Granulosimer Net weight ([2]; 1500 mcg/pellet): 25 ± 1 mg
anti-inflammatory activity (in words) ([2]; Assay 1, Table I, on pellet): effective anti-inflammatory agent
Potency Relative to Somatostatin (SRIF) [1]: 1

CC(C)[C@@H]1NC(=O)[C@H](CCCCN)NC(=O)[C@@H](Cc2c[nH]c3ccccc23)NC(=O)[C@H](Cc2ccc(O)cc2)NC(=O)[C@H](C)N(C)C(=O)[C@H](Cc2c[nH]c3ccccc23)NC1=O [9/I, Cyclo-(N-Me-Ala-Tyr-D-Trp-Lys-Val-Trp)] (HELM PEPTIDE1{K.V.W.[meA].Y.[dW]}$PEPTIDE1,PEPTIDE1,1:R1-6:R2$$$V2.0)
Potency Relative to Somatostatin (SRIF) [1]: 20-35

C[C@@H](O)[C@@H]1NC(=O)[C@H](CCCCN)NC(=O)[C@@H](Cc2c[nH]c3ccccc23)NC(=O)[C@H](Cc2ccccc2)NC(=O)[C@@H]2CCCN2C(=O)[C@H](Cc2ccccc2)NC1=O [13/II, Cyclo-(Pro-Phe-D-Trp-Lys-Thr-Phe)] (HELM PEPTIDE1{P.F.[dW].K.T.F}$PEPTIDE1,PEPTIDE1,1:R1-6:R2$$$V2.0)
Potency Relative to Somatostatin (SRIF) [1]: 6

C[C@@H]1NC(=O)[C@H](CO)NC(=O)[C@H](CCCCN)NC(=O)[C@@H](Cc2c[nH]c3ccccc23)NC(=O)[C@H](Cc2c[nH]cn2)NC(=O)[C@H](Cc2ccccc2)N(C)C1=O [11/I, Cyclo-(Ser-Ala-N-Me-Phe-His-D-Trp-Lys)] (HELM PEPTIDE1{A.[meF].H.[dW].K.S}$PEPTIDE1,PEPTIDE1,1:R1-6:R2$$$V2.0)
Potency Relative to Somatostatin (SRIF) [1]: 200
